Results reported in US20230263822A1, “MODULATION OF FACTOR 11 EXPRESSION” (Ionis Pharmaceuticals, Inc., priority 2008, published 2023).

Experiments:
[1] = Kidney function, urine protein to creatinine ratio in cynomolgus monkeys (Example 45); type: in vivo
Procedure: (§1) Groups, each consisting of two male and three female monkeys, were injected subcutaneously with ISIS 416838, ISIS 416850, ISIS 416858, ISIS 416864, or ISIS 417002 in escalating doses. Antisense oligonucleotide was administered to the monkeys at 5 mg/kg three times per a week for week 1; 5 mg/kg twice per week for weeks 2 and 3; 10 mg/kg three times per week for week 4; 10 mg/kg twice per week for weeks 5 and 6; 25 mg/kg three times per week for week 7; and 25 mg/kg twice per week for weeks 8, 9, 10, 11, and 12. One control group, consisting of two male and three female monkeys, was injected subcutaneously with PBS according to the same dosing regimen. An additional experimental group, consisting of two male and three female monkeys, was injected subcutaneously with ISIS 416850 in a chronic, lower dose regimen. Antisense oligonucleotide was administered to the monkeys at 5 mg/kg three times per week for week 1; 5 mg/kg twice per week for week 2 and 3; 10 mg/kg three times per week for week 4; and 10 mg/kg twice per week for weeks 5 to 12. Body weights were measured weekly. Blood samples were collected 14 days and 5 days before the start of treatment and subsequently once per week for Factor 11 protein activity analysis in plasma, fibrinogen measurement, PT and aPTT measurements, bleeding times, and measurement of various hematologic factors. On day 85, the monkeys were euthanized by exsanguination while under deep anesthesia, and organs harvested for further analysis.
To evaluate the impact of ISIS oligonucleotides on kidney function, urine samples were collected.

Factor 11 protein = Factor 11 protein in monkey plasma by sandwich ELISA (Example 45); type: in vivo, cynomolgus monkeys; conditions: for Inhibition of Factor 11 protein relative to the PBS control: plasma ELISA
Procedure: as §1
Plasma samples from all monkey groups taken on different days were analyzed by a sandwich-style ELISA assay (Affinity Biologicals Inc.) using an affinity-purified polyclonal anti-Factor 11 antibody as the capture antibody and a peroxidase-conjugated polyclonal anti-Factor 11 antibody as the detecting antibody. Monkey plasma was diluted 1:50 for the assay. Peroxidase activity was expressed by incubation with the substrate o-phenylenediamine. The color produced was quantified using a microplate reader at 490 nm and was considered to be proportional to the concentration of Factor 11 in the samples.
The results are presented in Table 115, expressed as percentage reduction relative to that of the PBS control.

[2] = Body and organ weights of cynomolgus monkeys (Example 45); type: in vivo;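 on Organ weights, Kidney: absolute organ weight in grams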;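 on Organ weights, Liver: absolute organ weight in grams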;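 on Organ weights, Spleen: absolute organ weight in grams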
Procedure: as §1
Body weights were taken once weekly throughout the dosing regimen. […] Organ weights were taken after the animals were euthanized and livers, kidneys and spleens were harvested and weighed. […] The ISIS oligonucleotide, ISIS 416850, given with the chronic dose regimen is distinguished from the other oligonucleotides with an asterisk (*).

[3] = Tolerability in Sprague-Dawley rats: liver function (Example 35); conditions: plasma, 50 mg/kg s.c. twice per week for 6 weeks
[4] = mouse, in vivo, sc, 50 mg/kg
[5] = Bleeding assay, Surgicutt Jr. device (Example 45); type: in vivo, cynomolgus monkeys; set-up: unit not given here
Procedure: as §1
On different days during the treatment period, bleeding assay was performed using a Surgicutt Jr. device (ITC, New Jersey). Monkeys were placed in monkey chair with their arm placed in a steady support. The arm was lightly shaved and a sphygmomanometer was placed on the upper arm. The cuff of the sphygmomanometer was inflated to 40 mm Hg and this pressure was maintained throughout the procedure. The area on the upper arm to be incised was cleansed with an antiseptic swab and the Surgicutt Jr device was used to make an incision over the lateral aspect, volar surface of the forearm, parallel to and 5 cm below the antecubital crease. At the exact moment the incision was made, a stopwatch was started. Every 30 seconds, blood from the incision was blotted out using a blotting paper without directly touching the incision, so that formation of the platelet plug was not disturbed. Blood was blotted out every 30 seconds until blood no longer stained the paper. The stopwatch was then stopped and the bleeding time determined. The sphygmomanometer was removed from the animal's arm, the incision site was antiseptically swabbed and a wound closure strip applied. The ISIS oligonucleotide, ISIS 416850, given with the chronic dose regimen is distinguished from the other oligonucleotides with an asterisk (*).

[6] = day 15, escalating dose regimen
[7] = day 22, escalating dose regimen
[8] = day 29, escalating dose regimen
[9] = day 36, escalating dose regimen
[10] = day 43, escalating dose regimen
[11] = day 50, escalating dose regimen
[12] = day 57, escalating dose regimen
[13] = day 64, escalating dose regimen
[14] = day 71, escalating dose regimen
[15] = day 78, escalating dose regimen
[16] = day 85, escalating dose regimen
[17] = day −5, escalating dose regimen
[18] = day −14, escalating dose regimen
[19] = day 15, chronic dose regimen (*)
[20] = day 22, chronic dose regimen (*)
[21] = day 36, chronic dose regimen (*)
[22] = day 43, chronic dose regimen (*)
[23] = after the animals were euthanized

## ISIS 416850: MOE gapmer, nucleobases 1275 to 1318 of SEQ ID NO: 1 (Table 8) (antisense TGCACAGTTTCTGGCAGGCC; MOE gapmer, wing and gap sizes not given here)
[1]; Day 80
  urine protein to creatinine ratio: 0.09
[1]; Day 84
  urine protein to creatinine ratio: 0.12
Factor 11 protein; cynomolgus monkeys, escalating dose regimen, ELISA
  Factor 11 protein levels in plasma: time-dependent decrease in protein levels
Factor 11 protein; day 8, chronic, lower dose regimen (*)
  Inhibition of Factor 11 protein relative to the PBS control: 6%
Factor 11 protein; day 8, escalating dose regimen
  Inhibition of Factor 11 protein relative to the PBS control: 8%
Factor 11 protein; day 15, chronic, lower dose regimen (*)
  Inhibition of Factor 11 protein relative to the PBS control: 13%
Factor 11 protein; [6]
  Inhibition of Factor 11 protein relative to the PBS control: 4%
Factor 11 protein; day 22, chronic, lower dose regimen (*)
  Inhibition of Factor 11 protein relative to the PBS control: 12%
Factor 11 protein; [7]
  Inhibition of Factor 11 protein relative to the PBS control: 11%
Factor 11 protein; day 29, chronic, lower dose regimen (*)
  Inhibition of Factor 11 protein relative to the PBS control: 20%
Factor 11 protein; [8]
  Inhibition of Factor 11 protein relative to the PBS control: 15%
Factor 11 protein; day 36, chronic, lower dose regimen (*)
  Inhibition of Factor 11 protein relative to the PBS control: 22%
Factor 11 protein; [9]
  Inhibition of Factor 11 protein relative to the PBS control: 17%
Factor 11 protein; day 43, chronic, lower dose regimen (*)
  Inhibition of Factor 11 protein relative to the PBS control: 24%
Factor 11 protein; [10]
  Inhibition of Factor 11 protein relative to the PBS control: 23%
Factor 11 protein; day 50, chronic, lower dose regimen (*)
  Inhibition of Factor 11 protein relative to the PBS control: 30%
Factor 11 protein; [11]
  Inhibition of Factor 11 protein relative to the PBS control: 42%
Factor 11 protein; day 57, chronic, lower dose regimen (*)
  Inhibition of Factor 11 protein relative to the PBS control: 34%
Factor 11 protein; [12]
  Inhibition of Factor 11 protein relative to the PBS control: 49%
Factor 11 protein; day 64, chronic, lower dose regimen (*)
  Inhibition of Factor 11 protein relative to the PBS control: 37%
Factor 11 protein; [13]
  Inhibition of Factor 11 protein relative to the PBS control: 55%
Factor 11 protein; day 71, chronic, lower dose regimen (*)
  Inhibition of Factor 11 protein relative to the PBS control: 41%
Factor 11 protein; [14]
  Inhibition of Factor 11 protein relative to the PBS control: 57%
Factor 11 protein; day 78, chronic, lower dose regimen (*)
  Inhibition of Factor 11 protein relative to the PBS control: 42%
Factor 11 protein; [15]
  Inhibition of Factor 11 protein relative to the PBS control: 63%
Factor 11 protein; day 85, chronic, lower dose regimen (*)
  Inhibition of Factor 11 protein relative to the PBS control: 34%
Factor 11 protein; [16]
  Inhibition of Factor 11 protein relative to the PBS control: 64%
Factor 11 protein; day −5, chronic, lower dose regimen (*)
  Inhibition of Factor 11 protein relative to the PBS control: 1%
Factor 11 protein; [17]
  Inhibition of Factor 11 protein relative to the PBS control: 0%
Factor 11 protein; day −14, chronic, lower dose regimen (*)
  Inhibition of Factor 11 protein relative to the PBS control: 0%
Factor 11 protein; [18]
  Inhibition of Factor 11 protein relative to the PBS control: 0%
[2]; day 1, chronic dose regimen (*)
  body weights: 2665 g
[2]; day 1, escalating dose regimen
  body weights: 2572 g
[2]; day 8, chronic dose regimen (*)
  body weights: 2579 g
[2]; day 8, escalating dose regimen
  body weights: 2430 g
[2]; [19]
  body weights: 2607 g
[2]; [6]
  body weights: 2474 g
[2]; [20]
  body weights: 2661 g
[2]; [7]
  body weights: 2514 g
[2]; day 29, chronic dose regimen (*)
  body weights: 2667 g
[2]; [8]
  body weights: 2515 g
[2]; [21]
  body weights: 2656 g
[2]; [9]
  body weights: 2545 g
[2]; [22]
  body weights: 2670 g
[2]; [10]
  body weights: 2544 g
[2]; day 50, chronic dose regimen (*)
  body weights: 2679 g
[2]; [11]
  body weights: 2613 g
[2]; [12]
  body weights: 2629 g
[2]; [13]
  body weights: 2642 g
[2]; [14]
  body weights: 2769 g
[2]; [15]
  body weights: 2660 g
[3]
  ALT: 80 IU/L
  AST: 5 IU/L
  Albumin: 4
  Bilirubin: 1 mg/dL
[4]
  HCT: 49%
  Lymphocyte: 4004 cells/μL
  Neutrophil: 1144 cells/μL
  Platelets: 916 10^3/μL
  RBC: 10 10^6/μL
  WBC: 5 10^3/μL
  hemoglobin: 15 g/dL
  monocytes: 156 cells/μL
[5]; [19]
  bleeding time: 149
[5]; [6]
  bleeding time: 165
[5]; [20]
  bleeding time: 143
[5]; [7]
  bleeding time: 151
[5]; [21]
  bleeding time: 221
[5]; [9]
  bleeding time: 137
[5]; [22]
  bleeding time: 156
[5]; [10]
  bleeding time: 216
[5]; [12]
  bleeding time: 195
[5]; [13]
  bleeding time: 201
[5]; [15]
  bleeding time: 203
[5]; [16]
  bleeding time: 201
[5]; day −5, chronic dose regimen (*)
  bleeding time: 93
[5]; [17]
  bleeding time: 127
[5]; day −14, chronic dose regimen (*)
  bleeding time: 177
[5]; [18]
  bleeding time: 172

## ISIS 416864: MOE gapmer, nucleobases 1275 to 1318 of SEQ ID NO: 1 (Table 8) (antisense GGCAGCGGACGGCATTGGTG; MOE gapmer, wing and gap sizes not given here)
[1]; Day 80
  urine protein to creatinine ratio: 0.36
[1]; Day 84
  urine protein to creatinine ratio: 0.34
Factor 11 protein; day 8, escalating dose regimen
  Inhibition of Factor 11 protein relative to the PBS control: 7%
Factor 11 protein; [6]
  Inhibition of Factor 11 protein relative to the PBS control: 9%
Factor 11 protein; [7]
  Inhibition of Factor 11 protein relative to the PBS control: 7%
Factor 11 protein; [8]
  Inhibition of Factor 11 protein relative to the PBS control: 10%
Factor 11 protein; [9]
  Inhibition of Factor 11 protein relative to the PBS control: 9%
Factor 11 protein; [10]
  Inhibition of Factor 11 protein relative to the PBS control: 9%
Factor 11 protein; [11]
  Inhibition of Factor 11 protein relative to the PBS control: 10%
Factor 11 protein; [12]
  Inhibition of Factor 11 protein relative to the PBS control: 7%
Factor 11 protein; [13]
  Inhibition of Factor 11 protein relative to the PBS control: 5%
Factor 11 protein; [14]
  Inhibition of Factor 11 protein relative to the PBS control: 10%
Factor 11 protein; [15]
  Inhibition of Factor 11 protein relative to the PBS control: 9%
Factor 11 protein; [16]
  Inhibition of Factor 11 protein relative to the PBS control: 8%
Factor 11 protein; [17]
  Inhibition of Factor 11 protein relative to the PBS control: 5%
Factor 11 protein; [18]
  Inhibition of Factor 11 protein relative to the PBS control: 0%
[2]; [23]
  Organ weights, Kidney: 14 g
  Organ weights, Liver: 53 g
  Organ weights, Spleen: 5 g
[2]; day 1, escalating dose regimen
  body weights: 2890 g
[2]; day 8, escalating dose regimen
  body weights: 2784 g
[2]; [6]
  body weights: 2817 g
[2]; [7]
  body weights: 2857 g
[2]; [8]
  body weights: 2863 g
[2]; [9]
  body weights: 3327 g
[2]; [10]
  body weights: 3355 g
[2]; [11]
  body weights: 3408 g
[2]; [12]
  body weights: 3387 g
[2]; [13]
  body weights: 3384 g
[2]; [14]
  body weights: 2942 g
[2]; [15]
  body weights: 2822 g
[3]
  ALT: 471 IU/L
  AST: 68 IU/L
  Albumin: 4
  Bilirubin: 3 mg/dL
[4]
  HCT: 52%
  Lymphocyte: 3921 cells/μL
  Neutrophil: 973 cells/μL
  Platelets: 750 10^3/μL
  RBC: 10 10^6/μL
  WBC: 5 10^3/μL
  hemoglobin: 15 g/dL
  monocytes: 141 cells/μL
[5]; [6]
  bleeding time: 153
[5]; [7]
  bleeding time: 133
[5]; [9]
  bleeding time: 205
[5]; [10]
  bleeding time: 146
[5]; [12]
  bleeding time: 216
[5]; [13]
  bleeding time: 218
[5]; [15]
  bleeding time: 170
[5]; [16]
  bleeding time: 203
[5]; [17]
  bleeding time: 111
[5]; [18]
  bleeding time: 166
